This note sets out measurements from PMC6704710, “Preclinical evaluation of 3D185, a novel potent inhibitor of FGFR1/2/3 and CSF-1R, in FGFR-dependent and macrophage-dominant cancer models” (Journal of Experimental & Clinical Cancer Research : CR, 2019).

Experiment in all cases: Eurofins kinase panel
Type in all cases: biochemical
What all share (conditions): read-out: Inhibition rate (%)

One test deals with T1, CDKL3(h) (Homo sapiens, UniProt Q8IVW4).
T1 construct: purchased Eurofins (KinaseProfiler)
T1 sequence (Q8IVW4 whole entry): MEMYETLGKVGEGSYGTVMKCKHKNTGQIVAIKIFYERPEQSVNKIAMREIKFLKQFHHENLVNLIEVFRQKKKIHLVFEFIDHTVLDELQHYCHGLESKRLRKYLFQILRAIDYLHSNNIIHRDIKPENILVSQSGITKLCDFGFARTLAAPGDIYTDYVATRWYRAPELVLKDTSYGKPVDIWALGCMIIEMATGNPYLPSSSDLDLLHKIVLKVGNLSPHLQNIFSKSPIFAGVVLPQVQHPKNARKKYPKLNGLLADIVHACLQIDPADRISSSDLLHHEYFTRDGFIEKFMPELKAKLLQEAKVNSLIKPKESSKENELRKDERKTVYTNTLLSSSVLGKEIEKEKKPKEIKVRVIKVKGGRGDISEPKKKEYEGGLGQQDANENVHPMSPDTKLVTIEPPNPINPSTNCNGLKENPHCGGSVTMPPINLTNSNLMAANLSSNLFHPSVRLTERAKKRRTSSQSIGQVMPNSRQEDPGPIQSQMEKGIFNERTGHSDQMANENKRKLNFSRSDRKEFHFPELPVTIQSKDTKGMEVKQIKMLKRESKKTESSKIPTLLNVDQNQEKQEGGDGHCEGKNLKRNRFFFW

The next test deals with T2, TAO2(h) (Homo sapiens, UniProt Q9UL54).
T2 construct: purchased Eurofins (KinaseProfiler)
T2 sequence (Q9UL54 1-1235): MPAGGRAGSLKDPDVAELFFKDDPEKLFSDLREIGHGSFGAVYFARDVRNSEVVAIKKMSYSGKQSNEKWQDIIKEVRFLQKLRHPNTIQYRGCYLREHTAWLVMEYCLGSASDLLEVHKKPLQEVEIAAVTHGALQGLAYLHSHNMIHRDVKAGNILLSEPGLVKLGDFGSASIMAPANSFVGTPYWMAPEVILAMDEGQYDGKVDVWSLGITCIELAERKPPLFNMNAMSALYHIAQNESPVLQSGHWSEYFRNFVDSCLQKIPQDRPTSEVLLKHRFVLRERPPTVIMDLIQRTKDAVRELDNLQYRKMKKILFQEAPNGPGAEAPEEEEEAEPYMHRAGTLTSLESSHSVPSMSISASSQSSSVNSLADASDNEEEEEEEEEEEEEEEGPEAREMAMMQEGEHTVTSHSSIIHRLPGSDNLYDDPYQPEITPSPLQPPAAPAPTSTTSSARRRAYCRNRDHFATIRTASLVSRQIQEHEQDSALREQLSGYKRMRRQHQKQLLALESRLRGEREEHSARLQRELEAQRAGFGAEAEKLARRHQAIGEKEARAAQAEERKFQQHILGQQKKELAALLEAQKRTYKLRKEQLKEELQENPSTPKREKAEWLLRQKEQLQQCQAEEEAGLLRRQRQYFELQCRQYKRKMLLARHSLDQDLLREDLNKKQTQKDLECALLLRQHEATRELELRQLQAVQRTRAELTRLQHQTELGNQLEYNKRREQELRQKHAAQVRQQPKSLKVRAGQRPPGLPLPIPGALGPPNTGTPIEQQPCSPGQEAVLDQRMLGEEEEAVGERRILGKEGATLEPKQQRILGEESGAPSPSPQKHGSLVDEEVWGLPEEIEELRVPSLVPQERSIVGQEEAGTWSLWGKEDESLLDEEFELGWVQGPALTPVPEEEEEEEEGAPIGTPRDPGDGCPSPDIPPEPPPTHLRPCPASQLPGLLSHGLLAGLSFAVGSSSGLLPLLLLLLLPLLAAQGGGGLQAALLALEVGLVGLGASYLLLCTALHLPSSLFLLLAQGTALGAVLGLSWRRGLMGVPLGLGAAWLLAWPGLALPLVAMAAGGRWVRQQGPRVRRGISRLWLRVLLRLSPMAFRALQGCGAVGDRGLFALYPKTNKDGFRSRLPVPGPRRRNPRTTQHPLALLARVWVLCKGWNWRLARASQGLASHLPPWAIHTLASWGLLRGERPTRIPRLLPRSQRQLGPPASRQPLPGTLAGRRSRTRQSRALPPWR

In a further test the target is T3, SAPK3(h) (Homo sapiens, UniProt P53778).
T3 construct: purchased Eurofins (KinaseProfiler)
T3 sequence (P53778 1-367): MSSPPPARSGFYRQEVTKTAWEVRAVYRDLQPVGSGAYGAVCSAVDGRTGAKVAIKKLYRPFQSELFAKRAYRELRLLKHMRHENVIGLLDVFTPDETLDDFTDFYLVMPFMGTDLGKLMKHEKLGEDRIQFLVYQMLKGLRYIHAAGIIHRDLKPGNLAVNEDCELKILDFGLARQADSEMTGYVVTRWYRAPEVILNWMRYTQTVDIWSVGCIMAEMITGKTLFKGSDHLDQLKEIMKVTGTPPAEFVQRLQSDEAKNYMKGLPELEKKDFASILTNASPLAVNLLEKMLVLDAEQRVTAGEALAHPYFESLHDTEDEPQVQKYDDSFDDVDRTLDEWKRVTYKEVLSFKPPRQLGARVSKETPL

For the next test, the target named is T4, EphB1(h) (Homo sapiens, UniProt P54762).
T4 construct: purchased Eurofins (KinaseProfiler)
T4 sequence (P54762 18-984): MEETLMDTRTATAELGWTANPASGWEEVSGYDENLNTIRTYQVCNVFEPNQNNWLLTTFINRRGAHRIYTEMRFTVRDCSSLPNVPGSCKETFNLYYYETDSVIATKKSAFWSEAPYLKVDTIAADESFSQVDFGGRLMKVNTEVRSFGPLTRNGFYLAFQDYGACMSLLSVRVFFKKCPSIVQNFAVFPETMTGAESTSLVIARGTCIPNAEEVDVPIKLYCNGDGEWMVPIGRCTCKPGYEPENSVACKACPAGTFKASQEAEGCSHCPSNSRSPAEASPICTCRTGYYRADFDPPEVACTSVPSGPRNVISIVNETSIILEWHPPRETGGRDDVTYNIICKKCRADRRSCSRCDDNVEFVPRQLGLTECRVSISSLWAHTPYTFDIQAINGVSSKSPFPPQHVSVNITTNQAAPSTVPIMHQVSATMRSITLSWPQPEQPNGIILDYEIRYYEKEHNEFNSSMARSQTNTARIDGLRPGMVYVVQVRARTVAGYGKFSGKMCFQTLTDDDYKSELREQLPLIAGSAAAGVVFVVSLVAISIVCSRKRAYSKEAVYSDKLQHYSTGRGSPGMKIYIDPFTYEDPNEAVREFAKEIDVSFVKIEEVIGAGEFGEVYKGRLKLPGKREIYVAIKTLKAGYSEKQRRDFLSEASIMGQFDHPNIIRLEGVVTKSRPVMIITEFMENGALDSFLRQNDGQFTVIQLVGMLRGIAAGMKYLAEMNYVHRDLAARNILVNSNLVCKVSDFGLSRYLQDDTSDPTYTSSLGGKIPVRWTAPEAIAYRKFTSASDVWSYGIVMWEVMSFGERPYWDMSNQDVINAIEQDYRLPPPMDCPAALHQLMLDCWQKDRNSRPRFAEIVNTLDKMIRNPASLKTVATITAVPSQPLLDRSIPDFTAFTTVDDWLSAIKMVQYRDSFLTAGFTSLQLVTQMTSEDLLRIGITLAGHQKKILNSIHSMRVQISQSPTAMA

For orientation: inhibition means the relative decrease from the control value, in per cent. On to `COc1cc(OC)c(Cl)c(-c2ccc3c(NC(=O)c4ccc(N5CCNC(C)(C)C5)cc4)n[nH]c3n2)c1Cl` [3D185], for which the inhibition at 0.01 µM on CDKL3(h) (10 nM) was -12%; on TAO2(h) (10 nM), 12%; on SAPK3(h) (10 nM), -4%; at EphB1(h) (10 nM), -9%. For the same compound, the inhibition at 0.1 µM at CDKL3(h) (100 nM) was -17%; at TAO2(h) (100 nM) it was 28%; at SAPK3(h) (100 nM), -12%; on EphB1(h) (100 nM) it was 1%. The inhibition at 1 µM at CDKL3(h) (1000 nM) is -9%; on TAO2(h) (1000 nM) it was 66%; at SAPK3(h) (1000 nM) it was -7%; at EphB1(h) (1000 nM), 36%.
